The results in this text go back to ChEMBL document CHEMBL1152590, “Computational modeling of novel inhibitors targeting the Akt pleckstrin homology domain” (Bioorg Med Chem, 2009).

The data set has as its system Caco-2. The data set is described as follows: Permeability across human Caco-2 cells. (Passage across Caco-2 layers is used to estimate intestinal permeability.)
Take `CCCc1nc2c(C)cc(-c3nc4ccccc4n3C)cc2n1Cc1ccc(-c2ccccc2C(=O)O)cc1`: the logPapp was -4.82.
Compound `CCOC(=O)[C@H](CCc1ccccc1)N[C@@H](C)C(=O)N1CCC[C@H]1C(=O)O` returned a logPapp of -5.64.
For `CN/C(=N/CCSCc1nc[nH]c1C)NC#N` [CIMETIDINE] the value was -5.89; for `Clc1cccc(Cl)c1N=C1NCCN1` [CLONIDINE], -4.59; for `NCCc1ccc(O)c(O)c1` [DOPAMINE], -5.03.
For `CNC[C@H](O)c1ccc(O)c(O)c1` [EPINEPHRINE] the value was -6.02; for `CN1CCC[C@H]1c1cccnc1` [NICOTINE], -4.71; for `C=CCOc1ccccc1OCC(O)CNC(C)C` (stereo unspecified) [OXPRENOLOL], -4.68.
Turning to `c1ccc(C2(N3CCCCC3)CCCCC2)cc1` [PHENCYCLIDINE], the logPapp was -4.61.
Compound `CC(C)NCC(O)COc1cccc2[nH]ccc12` (stereo unspecified) [PINDOLOL] displayed a logPapp of -4.78.
Compound `CC(=O)[C@H]1CC[C@H]2[C@@H]3CCC4=CC(=O)CC[C@]4(C)[C@H]3CC[C@]12C` [PROGESTERONE] displayed a logPapp of -4.37.
As to `CNC(=C[N+](=O)[O-])NCCSCc1ccc(CN(C)C)o1` [RANITIDINE], the logPapp is -6.31.
Consider `O=C(O)c1ccccc1O` [SALICYLIC ACID], for which the logPapp was -4.79.
For `O=C(O)c1cc(/N=N/c2ccc(S(=O)(=O)Nc3ccccn3)cc2)ccc1O` [SULFASALAZINE], the logPapp is given as -6.33.
Then `Cn1c(=O)c2[nH]cnc2n(C)c1=O.O` [THEOPHYLLINE], with -4.35; and `CC(C)(C)NC[C@H](O)COc1nsnc1N1CCOCC1` [TIMOLOL], with -4.85.
